Laboratory results from ChEMBL document CHEMBL6127007, “Development of visible-light-activatable photocaged PROTACs” (Eur J Med Chem, 2024).
Activity calls are given as the source filed them. The calls are words filed in the database; no cut-off is given here.

Key:
[1] = target: T1, Protein cereblon/Bromodomain-containing protein 4 (Homo sapiens, UniProt O60885+Q96SW2); test: Photocaged-PROTAC activity at CRBN/BRD4 in human Ramos cells assessed as […] Brd4 protein degradation pre-incubated for 2 hrs followed by visible light irradiation at 405 nM for 3 mins and measured after 12 hrs by Western blot analysis; format: cell-based
[2] = target: T1, Protein cereblon/Bromodomain-containing protein 4; test: Photocaged-PROTAC activity at CRBN/BRD4 in human Ramos cells assessed as Brd4 protein degradation upto 3 uM pre-incubated for 2 hrs under dark followed by 365 nm UV light irradiation for 3 mins and measured after 12 hrs by Western blot analysis; format: cell-based; settings: time 14.0 hrs
NAMALVA [3] = test: Antiproliferative activity against human NAMALVA cells assessed as reduction in cell viability pre-incubated for 2 hrs under dark followed by visible light irradiation for 3 mins at 405 nm and measured after 72 hrs under dark condition by CellTiter-Glo luminescent assay; format: functional, cell-based; settings: light or radiation study
NAMALVA [4] = test: Antiproliferative activity against human NAMALVA cells assessed as reduction in cell viability upto 10 uM measured after 72 hrs under dark condition by CellTiter-Glo luminescent assay; format: functional, cell-based
[5] = target: T1, Protein cereblon/Bromodomain-containing protein 4; test: Photocaged-PROTAC activity at CRBN/BRD4 in human Ramos cells assessed as […] Brd4 protein degradation under dark condition pre-incubated for 12 hrs by Western blot analysis; format: cell-based
[6] = target: T1, Protein cereblon/Bromodomain-containing protein 4; test: Photocaged-PROTAC activity at CRBN/BRD4 in human Ramos cells assessed as reduction in Brd4 protein level at 0.03 to 10 uM pre-incubated for 2 hrs under dark followed by UV light irradiation at 3 mW/cm^2 for 3 mins and measured after 12 hrs by Western blot analysis; format: cell-based; settings: dose 0.03-10 µM, time 14.0 hrs
[7] = target: T1, Protein cereblon/Bromodomain-containing protein 4; test: Photocaged-PROTAC activity at CRBN/BRD4 in human Ramos cells assessed as reduction in Brd4 protein level at 0.03 to 10 uM incubated for 12 hrs under dark by Western blot analysis; format: cell-based; settings: dose 0.03-10 µM
[8] = target: T1, Protein cereblon/Bromodomain-containing protein 4; test: Photocaged-PROTAC activity at CRBN/BRD4 in human Ramos cells assessed as […] Brd4 protein degradation pre-incubated for 2 hrs followed by UV light irradiation at 365 nM for 3 mins and measured after 12 hrs by Western blot analysis; format: cell-based
[9] = Photoactivation of the Photocaged-PROTAC assessed as uncaging rate measuring dBET1 release under visible light measured at 1 min by HPLC analysis
[10] = target: T1, Protein cereblon/Bromodomain-containing protein 4; test: Photocaged-PROTAC activity at CRBN/BRD4 in human Ramos cells assessed as reduction in Brd4 protein level at 0.03 to 10 uM pre-incubated for 2 hrs followed by visible light irradiation at 405 nm for 3 mins and measured after 12 hrs by Western blot analysis; format: cell-based; settings: dose 0.03-10 µM, time 14.0 hrs
[11] = target: T1, Protein cereblon/Bromodomain-containing protein 4; test: Photocaged-PROTAC activity at CRBN/BRD4 in human Ramos cells assessed as Brd4 protein degradation at 10000 nM incubated for 12 hrs under dark by Western blot analysis; format: cell-based
[12] = target: T1, Protein cereblon/Bromodomain-containing protein 4; test: Photocaged-PROTAC activity at CRBN/BRD4 in human Ramos cells assessed as Brd4 protein degradation at 0.03 to 10 uM pre-incubated for 2 hrs under dark followed by 365 nm UV light irradiation for 3 mins and measured after 12 hrs by Western blot analysis; format: cell-based; settings: dose 0.03-10 µM
[13] = target: T1, Protein cereblon/Bromodomain-containing protein 4; test: Photocaged-PROTAC activity at CRBN/BRD4 in human Ramos cells assessed as Brd4 protein degradation at 30 nM pre-incubated for 2 hrs under dark followed by 365 nm UV light irradiation for 3 mins and measured after 12 hrs by Western blot analysis; format: cell-based; settings: time 14.0 hrs
[14] = target: T1, Protein cereblon/Bromodomain-containing protein 4; test: Photocaged-PROTAC activity at CRBN/BRD4 in human Ramos cells assessed as Brd4 protein degradation at 0.03 to 10 uM incubated for 12 hrs under dark by Western blot analysis; format: cell-based; settings: dose 0.03-10 µM
NAMALVA [15] = test: Antiproliferative activity against human NAMALVA cells assessed as reduction in cell viability upto 10 uM measured after 72 hrs by CellTiter-Glo luminescent assay; format: functional, cell-based

T1 sequence (Q96SW2 whole entry, looked up, other chains not shown): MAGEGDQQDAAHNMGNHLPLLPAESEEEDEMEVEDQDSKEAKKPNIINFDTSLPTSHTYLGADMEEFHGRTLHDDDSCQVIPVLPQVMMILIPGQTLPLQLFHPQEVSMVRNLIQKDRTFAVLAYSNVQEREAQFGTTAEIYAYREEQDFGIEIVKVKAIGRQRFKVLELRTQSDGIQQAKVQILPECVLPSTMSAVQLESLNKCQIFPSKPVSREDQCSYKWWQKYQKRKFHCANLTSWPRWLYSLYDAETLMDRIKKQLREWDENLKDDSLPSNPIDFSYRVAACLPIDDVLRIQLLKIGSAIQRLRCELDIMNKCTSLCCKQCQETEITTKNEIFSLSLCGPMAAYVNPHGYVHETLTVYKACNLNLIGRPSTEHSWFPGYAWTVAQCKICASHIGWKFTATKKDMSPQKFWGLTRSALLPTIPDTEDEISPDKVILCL

SMILES: Cc1ncsc1-c1ccc(CN(Cc2cc3c(cc2[N+](=O)[O-])oc2ccccc23)C(=O)[C@@H]2C[C@@H](O)CN2C(=O)[C@@H](NC(=O)COCCOCCOCCOC(=O)C[C@@H]2N=C(c3ccc(Cl)cc3)c3c(sc(C)c3C)-n3c(C)nnc32)C(C)(C)C)cc1
- DC50 [1]: < 30 nM
- Activity [2]: Active
- IC50 (NAMALVA [3]): 140 nM
- IC50 (NAMALVA [4]): 1170 nM

SMILES: COc1cc(CON2C(=O)CCC(N3C(=O)c4cccc(OCC(=O)NCCCCNC(=O)C[C@@H]5N=C(c6ccc(Cl)cc6)c6c(sc(C)c6C)-n6c(C)nnc65)c4C3=O)C2=O)c([N+](=O)[O-])cc1OC (some centres not stated)
- DC50 [5]: > 10000 nM
- Activity [6]: Active
- Activity [7]: inactive
- DC50 [8]: 148 nM

SMILES: CCNC(=O)c1sc2c(c1C)C(c1ccc(Cl)cc1)=N[C@@H](CC(=O)NCCCCNC(=O)COc1cccc3c1C(=O)N(C1CCC(=O)NC1=O)C3=O)c1nnc(C)n1-2 (some centres not stated)
- Activity [6]: Active

SMILES: COc1cc(CN(CCCCNC(=O)C[C@@H]2N=C(c3ccc(Cl)cc3)c3c(sc(C)c3C)-n3c(C)nnc32)C(=O)COc2cccc3c2C(=O)N(C2CCC(=O)NC2=O)C3=O)c([N+](=O)[O-])cc1OC (some centres not stated)
- DC50 [5]: 59 nM
- Activity [7]: Active
- DC50 [8]: 55 nM

SMILES: Cc1ncsc1-c1ccc(CNC(=O)[C@@H]2C[C@@H](O)CN2C(=O)[C@@H](NC(=O)COCCOCCOCCNC(=O)C[C@@H]2N=C(c3ccc(Cl)cc3)c3c(sc(C)c3C)-n3c(C)nnc32)C(C)(C)C)cc1
- IC50 (NAMALVA [3]): 170 nM

SMILES: Cc1sc2c(c1C)C(c1ccc(Cl)cc1)=N[C@@H](CC(=O)NCCCCNC(=O)COc1cccc3c1C(=O)N(C1CCC(=O)N(OCc4cc5oc6ccccc6c5cc4[N+](=O)[O-])C1=O)C3=O)c1nnc(C)n1-2 (some centres not stated)
- DC50 [1]: 108 nM
- Activity [9]: Active
- IC50 (NAMALVA [3]): 741 nM
- IC50 (NAMALVA [4]): > 2350 nM
- Activity [10]: Active

SMILES: COc1cc(CN2C(=O)CCC(N3C(=O)c4cccc(OCC(=O)NCCCCNC(=O)C[C@@H]5N=C(c6ccc(Cl)cc6)c6c(sc(C)c6C)-n6c(C)nnc65)c4C3=O)C2=O)c([N+](=O)[O-])cc1OC (some centres not stated)
- DC50 [5]: > 10000 nM
- Activity [7]: inactive
- DC50 [8]: 2310 nM

SMILES: COc1cc(CN(Cc2ccc(-c3scnc3C)cc2)C(=O)[C@@H]2C[C@@H](O)CN2C(=O)[C@@H](NC(=O)COCCOCCOCCOC(=O)C[C@@H]2N=C(c3ccc(Cl)cc3)c3c(sc(C)c3C)-n3c(C)nnc32)C(C)(C)C)c([N+](=O)[O-])cc1OC
- Activity [11]: inactive
- Activity [12]: Active
- Activity [9]: Active
- DC50 [5]: > 10000 nM
- DC50 [8]: < 30 nM
- Activity [13]: Active

SMILES: COc1cc(COC(=O)O[C@@H]2C[C@@H](C(=O)NCc3ccc(-c4scnc4C)cc3)N(C(=O)[C@@H](NC(=O)COCCOCCOCCOC(=O)C[C@@H]3N=C(c4ccc(Cl)cc4)c4c(sc(C)c4C)-n4c(C)nnc43)C(C)(C)C)C2)c([N+](=O)[O-])cc1OC
- Activity [12]: Active
- Activity [9]: Active
- DC50 [5]: < 30 nM
- DC50 [8]: < 30 nM

SMILES: Cc1sc2c(c1C)C(c1ccc(Cl)cc1)=N[C@@H](CC(=O)NCCCCNC(=O)COc1cccc3c1C(=O)N(C1CCC(=O)NC1=O)C3=O)c1nnc(C)n1-2 (some centres not stated)
- IC50 (NAMALVA [3]): 317 nM

SMILES: CCN(Cc1cc(OC)c(OC)cc1[N+](=O)[O-])C(=O)c1sc2c(c1C)C(c1ccc(Cl)cc1)=N[C@@H](CC(=O)NCCCCNC(=O)COc1cccc3c1C(=O)N(C1CCC(=O)NC1=O)C3=O)c1nnc(C)n1-2 (some centres not stated)
- DC50 [5]: > 10000 nM
- Activity [6]: Active
- DC50 [8]: 1980 nM

SMILES: COc1cc(CN(C(=O)COCCOCCOCCOC(=O)C[C@@H]2N=C(c3ccc(Cl)cc3)c3c(sc(C)c3C)-n3c(C)nnc32)[C@H](C(=O)N2C[C@H](O)C[C@H]2C(=O)NCc2ccc(-c3scnc3C)cc2)C(C)(C)C)c([N+](=O)[O-])cc1OC
- Activity [14]: inactive
- Activity [12]: inactive
- DC50 [5]: > 10000 nM
- DC50 [8]: > 10000 nM

SMILES: Cc1sc2c(c1C)C(c1ccc(Cl)cc1)=N[C@@H](CC(=O)N(CCCCNC(=O)COc1cccc3c1C(=O)N(C1CCC(=O)NC1=O)C3=O)Cc1cc3c(cc1[N+](=O)[O-])oc1cc(N(C)C)ccc13)c1nnc(C)n1-2 (some centres not stated)
- DC50 [1]: 62 nM
- Activity (NAMALVA [15]): inactive
- Activity [9]: Active
- IC50 (NAMALVA [3]): 476 nM
- IC50 (NAMALVA [4]): > 10000 nM
- Activity [10]: Active

SMILES: Cc1sc2c(c1C)C(c1ccc(Cl)cc1)=N[C@@H](CC(=O)N(CCCCNC(=O)COc1cccc3c1C(=O)N(C1CCC(=O)NC1=O)C3=O)C(C)c1cc3c(cc1[N+](=O)[O-])oc1ccccc13)c1nnc(C)n1-2 (some centres not stated)
- DC50 [1]: 65 nM
- Activity (NAMALVA [15]): inactive
- Activity [9]: Active
- IC50 (NAMALVA [3]): 291 nM
- IC50 (NAMALVA [4]): > 10000 nM
- Activity [10]: Active

SMILES: Cc1sc2c(c1C)C(c1ccc(Cl)cc1)=N[C@@H](CC(=O)N(CCCCNC(=O)COc1cccc3c1C(=O)N(C1CCC(=O)NC1=O)C3=O)Cc1cc3oc4ccccc4c3cc1[N+](=O)[O-])c1nnc(C)n1-2 (some centres not stated)
- DC50 [1]: 32 nM
- Activity (NAMALVA [15]): inactive
- Activity [9]: Active
- IC50 (NAMALVA [3]): 287 nM
- IC50 (NAMALVA [4]): > 10000 nM
- Activity [10]: Active
